From patent US7863271B2, “2-aminobenzoxazole carboxamides as 5HT3 modulators” (Albany Molecular Research, Inc., priority 2006, dated 2011) come the findings set out here.

What is called Ki is the dissociation constant of the complex between target and ligand, obtained from inhibition or displacement. For orientation: inhibition means the percentage by which the read-out fell short of the control.

Test [1] deals with T1, 5-HT3 (Homo sapiens, UniProt P46098).
T1 sequence (P46098 24-478): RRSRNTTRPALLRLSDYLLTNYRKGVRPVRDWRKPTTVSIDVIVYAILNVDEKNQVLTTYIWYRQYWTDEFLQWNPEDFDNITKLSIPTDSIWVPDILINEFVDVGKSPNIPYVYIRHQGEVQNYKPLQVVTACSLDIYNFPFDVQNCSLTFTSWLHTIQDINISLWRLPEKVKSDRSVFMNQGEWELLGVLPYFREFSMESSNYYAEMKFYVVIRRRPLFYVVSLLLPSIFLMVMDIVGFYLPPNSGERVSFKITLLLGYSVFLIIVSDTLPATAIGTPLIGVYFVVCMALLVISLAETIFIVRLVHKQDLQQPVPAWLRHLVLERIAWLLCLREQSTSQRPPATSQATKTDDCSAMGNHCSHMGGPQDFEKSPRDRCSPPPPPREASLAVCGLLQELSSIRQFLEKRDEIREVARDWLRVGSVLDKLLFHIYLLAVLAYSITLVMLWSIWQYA
Put plainly: Compound affinity for the human 5-HT3 receptor (Assay A), [3H]-GR65630 radioligand binding. Details: host or cells: N1E-155 cell lines (so in the source). The note with it: annotated (A): Assay A. Here is the method: Compound Affinity for the human 5-HT3 Receptor (Assay A)
Compounds were tested by MDS Pharma Services—Taiwan Ltd., 158 Li-The Road, Peitou, Taipei, Taiwan 112 R.O.C. In order to evaluate the relative affinity of the various compounds for the human 5-HT3 receptor, N1E-155 cell lines were developed to express the target protein. For binding, these cells were homogenized, centrifuged and washed with buffer (20 mM HEPES, 150 mM NaCl, pH 7.4) then suspended in 0.5 mL of buffer and [3H]-GR65630 added at a concentration of 3.5×10^-10 M. An initial single concentration of 10^-7 M of the test compound was then added. Incubation was carried out at room temperature for 60 minutes at 25° C. then was terminated by rapid removal of the incubation medium. Radioactivity was assessed using liquid scintillation spectrophotometry after exposure to scintillation cocktail for at least three hours. […] Ki values were then calculated from the Cheng-Prusoff equation. In all of the above binding studies the non-specific determinant was MDL-72222 (1.0 μM).

The target of test [2] is T2, 5-HT3 receptors (Mus musculus, UniProt P23979).
T2 construct: from tissue; host or cells: whole animal: male or female CD-1(Crl.) mice
T2 sequence (P23979 24-489): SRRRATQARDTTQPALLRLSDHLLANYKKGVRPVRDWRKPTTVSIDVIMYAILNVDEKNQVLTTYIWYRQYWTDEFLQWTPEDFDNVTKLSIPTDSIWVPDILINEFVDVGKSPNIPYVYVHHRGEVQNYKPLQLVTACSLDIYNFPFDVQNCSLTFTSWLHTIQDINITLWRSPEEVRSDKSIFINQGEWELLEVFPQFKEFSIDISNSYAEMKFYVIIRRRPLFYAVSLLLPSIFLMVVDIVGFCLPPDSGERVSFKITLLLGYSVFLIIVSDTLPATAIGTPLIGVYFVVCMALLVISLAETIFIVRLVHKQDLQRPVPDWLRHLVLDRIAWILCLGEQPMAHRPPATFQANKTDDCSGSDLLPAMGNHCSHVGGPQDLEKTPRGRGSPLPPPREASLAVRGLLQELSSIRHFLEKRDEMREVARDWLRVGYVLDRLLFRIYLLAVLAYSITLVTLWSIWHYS
The test can be described thus: Bezold-Jarisch assay in vivo: inhibition of serotonin induced bradycardia. The settings on record: read-out: % Inhibition @ dose of test substance (p.o.); for inhibition at 3 mg/kg: 3 mg/kg p.o.; for inhibition at 3 mg/kg / inhibition at 1 mg/kg: 5-HT (0.1 mg/kg IV)-induced bradycardia 60 min later; for inhibition at 1 mg/kg: 1 mg/kg p.o. The method, then: Bezold-Jarisch Assay in vivo. […] Arch. Int. Pharmacodyn. 277: 235-252, 1985]. Test substances and vehicle [2% Tween 80] were each administered orally (0.3 to 3 mg/kg) to a group of 5 male or female CD-1(Crl.) mice each weighing 24±2 g. A dosing volume of 10 mL/kg was used. Sixty minutes later, 5-HT (0.1 mg/kg IV)-induced bradycardia was recorded in urethane (2225-2500 mg/kg IP, given 10 minutes before 5-HT)-anesthetized animals.
In vivo 5-HT3 Antagonism in the mouse (Bradycardia Reflex)

Test [3] concerns the target T1, 5-HT3. The test can be described thus: Compound affinity for the human 5-HT3 receptor (Assay B), SPA radioligand binding with [9-methyl-3H]BRL-43694. More on the design: purchased Perkin Elmer. In a few lines: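 Ten competitor concentrations in duplicate; specific binding (total minus nonspecific) fitted for IC50, converted to Ki by Cheng-Prusoff.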
Test [4] deals with T1, 5-HT3. Put plainly: 5-HT3 inhibitor screen with potency threshold (not further specified). The class given is binding.

Counter-ions that a name gives are not always drawn.

With `CSc1nc2c(C(=O)N[C@@H]3CN4CCC3CC4)cccc2o1` [Example 14, (S)—N-(quinuclidine-8-yl)-2-(methylthio)benzoxazole-4-carboxamide Hydrochloride], the affinity in test [1], expressed as Ki, was 2.6 nM.
`Nc1nc2c(C(=O)NC3CN4CCC3CC4)cc(F)cc2o1` [Example 116, (S)—N-(Quinulidin-8-yl)-2-amino-6-fluorobenzoxazole-4-carboxamide Hydrochloride]: the inhibition at 3 mg/kg in test [2] was found to be 97%. This compound also yielded a Ki in test [3] of 9.4 nM.
With `C[C@@H]1CNC[C@H](C)N1c1nc2c(C(=O)NC3CC4CCCC(C3)N4C)cccc2o1` (relative stereo) [Example 50, Endo-N-(9-Methyl-9-azabicyclo[3.3.1]nonan-3-yl)-2-((2S*,6R*)-2,6-dimethylpiperazin-1-yl)benzoxazole-4-carboxamide Hydrochloride], the inhibition at 3 mg/kg in test [2] came out at 80%. The affinity in test [3] corresponds to a Ki of 13.6 nM.
For the compound `Nc1nc2c(C(=O)NC3CN4CCC3CC4)cc(Cl)cc2o1` (centres unmarked) [Example 103, Hydrochloride], in test [2], the inhibition at 3 mg/kg turned out to be 97%. This compound also had a Ki in test [3] of 5.1 nM.
On to `C[C@H]1COCCN1c1nc2c(C(=O)NC3CC4CCCC(C3)N4C)cccc2o1` (stereo partly drawn) [Example 49, Endo-N-(9-Methyl-9-azabicyclo[3.3.1]nonan-3-yl)-2-((S)-3-methylmorpholino)benzoxazole-4-carboxamide Hydrochloride], for which the inhibition at 1 mg/kg in test [2] worked out at 86%.
As to `CN(C)c1nc2c(C(=O)N[C@@H]3CN4CCC3CC4)cccc2o1` [Example 8, (S)—N-(quinuclidine-8-yl)-2-(dimethylamino)benzoxazole-4-carboxamide Hydrochloride], the inhibition at 0.3 mg/kg in test [2] is 83%. For the same compound, the Ki in test [3] (Assay B (method B unless otherwise annotated), read-out: 5-HT3 Ki) was 18.1 nM.
Take `C[C@H]1CN(C)CCN1c1nc2c(C(=O)NC3CC4CCCC(C3)N4C)cccc2o1` (stereo partly drawn) [Example 55, Endo-N-(9-Methyl-9-azabicyclo[3.3.1]nonan-3-yl)-2-((S)-2,4-dimethylpiperazin-1-yl)benzoxazole-4-carboxamide Hydrochloride]: the “level of potency established as the threshold for the screen” value in test [4] is “has not exhibited the level of potency established as the threshold for the screen”. For the same compound, the Ki in test [3] was 28.8 nM.
With `C[C@H]1COC[C@H](C)N1c1nc2c(C(=O)NC3CC4CCCC(C3)N4C)cccc2o1` (stereo partly drawn) [Example 75, Endo-N-(9-Methyl-9-azabicyclo[3.3.1]nonan-3-yl)-2-((3S,5S)-3,5-dimethylmorpholino)benzoxazole-4-carboxamide Hydrochloride], the inhibition at 1 mg/kg in test [2] amounted to 98%. Also, in test [3], the Ki worked out at 0.59 nM.
`Nc1nc2c(C(=O)NC3CN4CCC3CC4)cccc2o1` [Example 93, (S)—N-(Quinulidin-8-yl)-2-aminobenzoxazole-4-carboxamide Hydrochloride]: the inhibition at 3 mg/kg in test [2] was found to be 85%. The affinity in test [3] corresponds to a Ki of 12.1 nM.
In test [1], `CSc1nc2c(C(=O)N[C@H]3C[C@H]4CCC[C@@H](C3)N4C)cccc2o1` [Example 13, Endo-N-(9-Methyl-9-azabicyclo[3.3.1]non-3-yl)-2-methylthiobenzoxazole-4-carboxamide Hydrochloride] registered an inhibitory constant (Ki) of 4.6 nM.
